Source: publication PMC11496081, “The diversity of AMPA receptor inhibition mechanisms among amidine-containing compounds” (Frontiers in Pharmacology, 2024)
Values joined by “and” are separate entries in the source; they are usually repeats but may differ in a detail not shown here. Equal entries are not always repeated. Where two headings read alike, the source gives them in different places.

Experiments:
[1] = tested on: calcium-permeable AMPA receptors (CP-AMPARs); test: Whole-cell patch clamp, block of kainate-induced currents in striatal giant interneurons; assay type: cell-based, rat
Procedure: (§1) The rats were anesthetised with sevoflurane and then decapitated. […] All experiments were performed at room temperature.
(§2) Pentamidine isethionate (P-155) was from Alomone laboratories.
(§3) The voltage dependence of compounds action was analysed by Woodhull model for permeable blockers ([Woodhull, 1973]; [Tikhonova et al., 2008]). According to this model, the voltage dependence of steady-state blockade is given by Equation 1: BV=100%−100%/1+C/KbexpF/RT zδb V+Kp exp−F/RT zδp V (1) where V is voltage, B is level of block (%), C is concentration of the drug, z is molecular charge, and R, F and T have their standard meanings. Kb is the affinity of a drug for the channel. The δb value reflects the fraction of membrane electric field that the charged blocking molecule crosses on its pathway between the external media and the binding site in the channel (where the total field has a value of 1). Parameters Kp and δp describe permeation through the channel. […] For this reason, we used Equation 2, which takes into account the possibility of inhibitor to bind also at superficial site ([Nikolaev and Tikhonov, 2023]), assuming that the binding to the deep and superficial site is independent. BV=100%−100%/1+C/KbexpF/RT zδb V+Kp exp−F/RT zδp V+C/Kvin+C^2/Kvin KbexpF/RT zδb V+Kp exp−F/RT zδp V (2)
(§4) All experimental data are presented as the mean ± SD estimated from at least four experiments (cells). Significance of the effects was tested with t-tests. Differences were considered significant at p < 0.05. Concentration dependencies were approximated by Hill equation. Voltage dependencies were approximated by Equation 1 or 2. […] Then all data was pooled together and the parameters of voltage dependence were estimated using the fitting of all measurements. For each holding potential ≥4 cells were used. Voltage dependence parameters (binding constants and δb values) are shown as the result of the fitting ± approximation errors.

[2] = target: T1, calcium-impermeable AMPA receptors (CI-AMPARs) (Rattus norvegicus, UniProt P19490+P19491, Q607R); test: Whole-cell patch clamp, kainate-induced currents in hippocampal CA1 pyramidal neurons; assay type: cell-based; details: for δb CI-AMPAR: fixed δb values obtained from the CP-AMPARs data; for inhibition at 200 µM: furamidine 50 µM
Procedure: as §1, §2, §3, §4

[3] = tested on: calcium-permeable AMPA receptors (CP-AMPARs); design: method as in Zhigulin et al., 2022; details: −80 mV, ref Zhigulin et al., 2022, cited from earlier work
[4] = target: T1, calcium-impermeable AMPA receptors (CI-AMPARs); design: method as in Zhigulin et al., 2022; details: 100 µM compound, −80 mV; ref Zhigulin et al., 2022; cited from earlier work
NMDA receptors = tested on: NMDA receptors; design: method as in Zhigulin and Barygin, 2023; details: ref Zhigulin and Barygin, 2023, cited from earlier work; for δb NMDAR / Kb: channel site; for Kb: read-out: Kb, μM NMDAR; for Kd: superficial site, read-out: Kvin, μM NMDAR; for IC50: read-out: IC50 at -80mV, μM NMDAR
[5] = target: T1, calcium-impermeable AMPA receptors (CI-AMPARs); test: Whole-cell patch clamp, glutamate-induced currents in hippocampal CA1 pyramidal neurons
Procedure: The rats were anesthetised with sevoflurane and then decapitated. The brains were brought out quickly and cooled to 2°C–4°C. Transverse striatal or hippocampal slices were cut using a vibratome (Campden Instruments) and stored in a solution containing (in mM): NaCl 124, KCl 5, CaCl2 1.3, MgCl2 2.0, NaHCO3 26, NaH2PO4 1.24, D-glucose 10, aerated with carbogen (95% O2, 5% CO2). All experiments were performed at room temperature.
Vibrodissociation method ([Vorobjev, 1991]; [Jun et al., 2011]) was used to free CA1 pyramidal neurons or giant striatal interneurons from slices. This method allows isolating cells without enzymatic treatment and keep them in more native state. […] The antagonism of CI-AMPARs was studied on pyramidal neurons from the CA1 area of the hippocampus. These cells were isolated from the stratum pyramidale and distinguished from non-pyramidal cells on the basis of pyramidal-like somata and preserved apical dendrites.
To record membrane currents in response to applications of kainate or glutamate the whole-cell configuration of patch clamp technique was used. Series resistance (<20 MΩ) was compensated by 70%–80% and monitored during experiments. […]
AMPA receptors were activated with 100 µM kainate or 1 mM glutamate unless otherwise stated. […] The effects of compounds on steady-state currents for different drug concentrations were measured at −80 mV holding voltages. […]

[6] = voltage dependence fitted by eq. 1; read-out: Kb, µM CP-AMPARs (binding to channel site)
[7] = voltage dependence −140 to +40 mV fitted by eq. 1
[8] = 100 µM compound, kainate-induced current, −80 mV
[9] = kainate-induced current, −80 mV; read-out: IC50, µM CP-AMPARs
[10] = −80 mV; IEM-1925 1 µM, pentamidine 50 μM

T1 sequence (P19491 22-883 Q607R): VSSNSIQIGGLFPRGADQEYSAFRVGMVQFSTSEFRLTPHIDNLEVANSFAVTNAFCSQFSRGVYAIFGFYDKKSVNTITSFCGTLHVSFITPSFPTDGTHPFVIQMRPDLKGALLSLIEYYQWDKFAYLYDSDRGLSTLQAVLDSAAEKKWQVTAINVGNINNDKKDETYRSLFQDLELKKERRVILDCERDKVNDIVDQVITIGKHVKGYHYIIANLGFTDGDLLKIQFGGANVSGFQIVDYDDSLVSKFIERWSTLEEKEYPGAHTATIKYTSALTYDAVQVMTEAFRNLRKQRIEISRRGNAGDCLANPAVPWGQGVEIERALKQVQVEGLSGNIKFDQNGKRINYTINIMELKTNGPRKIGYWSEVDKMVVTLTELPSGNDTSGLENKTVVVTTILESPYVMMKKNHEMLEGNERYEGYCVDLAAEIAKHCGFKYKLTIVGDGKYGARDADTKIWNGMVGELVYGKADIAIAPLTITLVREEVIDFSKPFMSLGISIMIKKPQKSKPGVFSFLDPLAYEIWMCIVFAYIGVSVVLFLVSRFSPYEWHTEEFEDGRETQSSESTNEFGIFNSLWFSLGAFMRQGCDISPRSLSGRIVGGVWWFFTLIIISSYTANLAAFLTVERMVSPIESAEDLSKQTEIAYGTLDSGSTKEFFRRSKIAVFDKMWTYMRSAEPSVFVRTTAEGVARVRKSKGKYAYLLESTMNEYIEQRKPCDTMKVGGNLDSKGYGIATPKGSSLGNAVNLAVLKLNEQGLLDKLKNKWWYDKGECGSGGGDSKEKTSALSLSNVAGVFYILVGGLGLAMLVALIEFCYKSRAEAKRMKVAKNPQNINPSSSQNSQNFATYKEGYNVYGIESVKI
T1 sequence (P19490 19-907): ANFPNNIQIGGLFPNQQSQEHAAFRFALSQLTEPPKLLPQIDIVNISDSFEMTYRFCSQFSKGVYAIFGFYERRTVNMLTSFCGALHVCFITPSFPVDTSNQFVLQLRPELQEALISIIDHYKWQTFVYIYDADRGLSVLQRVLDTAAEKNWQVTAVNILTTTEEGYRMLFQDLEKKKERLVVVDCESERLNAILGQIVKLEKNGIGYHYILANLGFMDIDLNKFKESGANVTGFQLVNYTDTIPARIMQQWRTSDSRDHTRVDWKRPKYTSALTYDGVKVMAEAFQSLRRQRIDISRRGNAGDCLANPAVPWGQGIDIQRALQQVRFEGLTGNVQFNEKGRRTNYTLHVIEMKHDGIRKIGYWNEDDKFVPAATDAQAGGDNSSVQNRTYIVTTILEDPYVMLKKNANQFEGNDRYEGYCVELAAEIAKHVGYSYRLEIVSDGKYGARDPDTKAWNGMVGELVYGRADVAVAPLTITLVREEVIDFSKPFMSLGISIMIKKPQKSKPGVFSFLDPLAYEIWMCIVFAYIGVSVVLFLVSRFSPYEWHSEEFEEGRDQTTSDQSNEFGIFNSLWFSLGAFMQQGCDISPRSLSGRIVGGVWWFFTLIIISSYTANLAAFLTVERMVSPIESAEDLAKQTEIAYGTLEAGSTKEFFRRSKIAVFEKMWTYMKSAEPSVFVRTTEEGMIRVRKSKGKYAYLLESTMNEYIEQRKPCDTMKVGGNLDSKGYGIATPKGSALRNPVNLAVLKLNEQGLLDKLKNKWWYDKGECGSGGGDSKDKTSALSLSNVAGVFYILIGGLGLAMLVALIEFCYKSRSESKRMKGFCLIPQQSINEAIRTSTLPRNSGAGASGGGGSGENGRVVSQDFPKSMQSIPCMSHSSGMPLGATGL

| Compound | Kb [1, 6] | δb CP-AMPARs (fraction of membrane electric field to channel site) [1, 7] | δb CI-AMPAR [2] | δb NMDAR (NMDA receptors) | Kb (NMDA receptors) | Kd (NMDA receptors) | IC50 (NMDA receptors; −80 mV) | Block at 100 µM, % CP-AMPARs [1, 8] | IC50 [1, 9] | other results |
| --- | --- | --- | --- | --- | --- | --- | --- | --- | --- | --- |
| N=C(N)c1ccc(/N=N/Nc2ccc(C(=N)N)cc2)cc1 [Diminazene] | 47 ± 5 µM | 0.64 ± 0.05 and 0.65 | 0.65 | 0.55 | 1500 µM | 14 µM | 13 µM | – | – | δb CP-AMPARs (fraction of membrane electric field to channel site) ([1]; voltage dependence −140 to +40 mV fitted by eq. 1; listed as diminazene): around 0.7; Block at 100 µM, % CP-AMPARs ([3]; 100 µM compound): 69 ± 4 %; IC50 [3]: 60 ± 11 µM; Block at 100 µM, % CI-AMPARs [4]: 31 ± 7 % |
| N#Cc1ccccc1-c1cc(-c2ccccn2)cn(-c2ccccc2)c1=O [perampanel] | – | – | – | – | – | – | – | – | – | inhibition of CP-AMPARs in presence of kainate ([1]; 100 nM perampanel): 50%–70%; inhibition at 0.1 µM ([2]; read-out: inhibition of kainate-induced CI-AMPAR currents in absence of cyclothiazide, 100 nM perampanel): 74% |
| CCOC(=O)c1ccc(OC(=O)CCCCCNC(=N)N)cc1 [Gabexate] | – | – | – | 0.55 | 800 µM | 25 µM | 16 µM | 30 ± 4 (n=4) % | > 100 µM | – |
| N=C(N)c1ccc2cc(OC(=O)c3ccc(NC4=NCCN4)cc3)ccc2c1 [Sepimostat] | 71 ± 9 µM | 0.88 ± 0.12 and 0.9 | 0.9 | 0.55 | 102 µM | 7 µM | 3.5 µM | 66 ± 5 (n=4) % | 56 ± 6 µM | inhibition remaining in trapping protocol after 10 s without kainate ([1]; 300 µM sepimostat): 21% ± 2%; recovery (washout) kinetics τ, CP-AMPARs ([1]; in presence of kainate): 1.5 ± 0.3 s; IC50 ([1]; kainate-induced current, −80 mV; listed as sepimostat; read-out: IC50, µM CP-AMPARs): ~55 µM; δb CP-AMPARs (fraction of membrane electric field to channel site) ([1]; voltage dependence −140 to +40 mV fitted by eq. 1; listed as sepimostat): ~0.9; inhibition at 100 µM ([2]; 100 µM compound, kainate-induced current, −80 mV, read-out: Block at 100 µM, % CI-AMPARs): 37 ± 3% |
| N=C(N)c1ccc2cc(OC(=O)c3ccc(N=C(N)N)cc3)ccc2c1 [Nafamostat] | 9 ± 4 µM | 0.76 ± 0.16 and 0.75 | 0.75 | 0.55 | 11 µM | 3 µM | 0.2 µM | 60 ± 11 (n=4) % | 55 ± 24 µM | IC50 ([1]; kainate-induced current, −80 mV; listed as nafamostat; read-out: IC50, µM CP-AMPARs): ~55 µM; Kb ([1]; voltage dependence fitted by eq. 1; listed as nafamostat; read-out: Kb, µM CP-AMPARs (binding to channel site)): 5 to 10 µM; δb CP-AMPARs (fraction of membrane electric field to channel site) ([1]; voltage dependence −140 to +40 mV fitted by eq. 1; listed as nafamostat): around 0.7 |
| N=C(N)c1ccc(-c2cc3ccc(C(=N)N)cc3[nH]2)cc1 [DAPI, 4′,6-diamidino-2-phenylindole] | 5.4 ± 1.2 µM | – | 0.65 | 0.55 | 5000 µM | 3.2 µM | 3.1 µM | 83 ± 4 (n=4) % | 27 ± 1 µM | Block at 100 µM, % CI-AMPARs [2, 8]: 64 ± 5 (n=6) %; Kb ([2]; fitted by eq. 2 with fixed δb values from CP-AMPARs data, read-out: Kb, µM CI-AMPARs (binding to channel site)): 24 ± 7 µM; Kd ([2]; fitted by eq. 2 with fixed δb values from CP-AMPARs data, read-out: Kvin, µM CI-AMPARs (binding to superficial site)): 62 ± 6 µM; IC50 ([2]; kainate-induced current, −80 mV): 59 ± 9 µM |
| NS(=O)(=O)c1cc2c(cc1Cl)NC(C1CC3C=CC1C3)NS2(=O)=O (stereo not drawn) [cyclothiazide] | – | – | – | – | – | – | – | – | – | fold induction at 100 µM ([2]; read-out: increase in current at 50 µM kainate): 8 ± 2; fold induction at 100 µM ([2]; read-out: potentiation of responses evoked by 100 µM kainate): 6 ± 3; fold induction at 100 µM ([5]; read-out: enhancement of glutamate-induced currents): 12 ± 3 |
| CN(C)C(=O)COC(=O)Cc1ccc(OC(=O)c2ccc(NC(=N)N)cc2)cc1 [Camostat] | – | – | – | – | – | – | > 100 µM | 16 ± 4 (n=4) % | > 100 µM | Block at 100 µM, % CP-AMPARs ([1]; 100 µM compound, kainate-induced current, −80 mV; listed as camostat): < 50%; IC50 at -80mV, μM NMDAR (NMDA receptors; −80 mV): ineffective |
| IEM-1925 | – | – | – | – | – | – | – | – | – | inhibition of CP-AMPARs with 50 µM kainate [1, 10]: 40% ± 3%; inhibition of CP-AMPARs with 500 µM kainate [1, 10]: 48% ± 5% |
| N=C(N)c1ccc(-c2ccc(-c3ccc(C(=N)N)cc3)o2)cc1 [Furamidine] | – | 0.72 ± 0.15 and 0.7 | 0.7 | 0.55 | 22 µM | 3.3 µM | 0.64 µM | 79 ± 7 (n=4) % | – | Block at 100 µM, % CP-AMPARs ([1]; 100 µM compound, kainate-induced current, −80 mV; listed as furamidine): 75–80%; IC50 ([1]; read-out: IC50, µM CP-AMPARs; kainate-induced current, −80 mV): 38 µM; Kb ([1]; read-out: Kb, µM CP-AMPARs (binding to channel site); voltage dependence fitted by eq. 1): 15 µM; δb CP-AMPARs (fraction of membrane electric field to channel site) ([1]; voltage dependence −140 to +40 mV fitted by eq. 1; listed as furamidine): around 0.7 |
| N=C(N)c1ccc(OCCCCCOc2ccc(C(=N)N)cc2)cc1 [Pentamidine] | 36 ± 4 µM | 0.49 ± 0.04 and 0.5 | 0.5 | 0.7 | 27 µM | 10 µM | 0.41 µM | 70 ± 4 (n=4) % | 43 ± 9 µM | washout kinetics τ of perampanel and pentamidine mixture ([1]; 100 nM perampanel + 500 µM pentamidine, in presence of kainate): 620 ± 470 ms; block of CP-AMPARs at +40 mV ([1]; 100 μM, +40 mV, representative example): 27%; block of CP-AMPARs at −40 mV ([1]; 100 μM, −40 mV, representative example): 78%; rectification index (current ratio between +40 mV and −40 mV) ([1]; 10 mM in pipette solution, kainate-induced responses): 0.10 ± 0.04; washout kinetics τ, CP-AMPARs ([1]; in presence of kainate): 120 ± 60 ms; inhibition at 100 µM ([2]; read-out: Block at 100 µM, % CI-AMPARs, 100 µM compound, kainate-induced current, −80 mV): 39 ± 5%; inhibition at 200 µM ([2]; read-out: block of CI-AMPARs with 50 µM kainate, −80 mV, pentamidine 200 µM, no cyclothiazide): 38%; inhibition at 200 µM ([2]; read-out: block of CI-AMPARs with 500 µM kainate, −80 mV, pentamidine 200 μM): 61%; remaining activity at 100 µM ([5]; read-out: Idrug/Icontrol, glutamate-induced steady-state current): 140 ± 10% |
